Test results reported in patent publication US12371424B2, “Processes for the preparation of furazanobenzimidazoles and crystalline forms thereof” (Glioblastoma Foundation, Inc., priority 2017, dated 2025).

What was measured:
[1] = Dynamic vapor sorption (DVS) moisture sorption isotherm; assay type: physicochemical; settings: for water absorption up to 85% RH / water absorption up to 95% RH: DVS, ca. 25° C.
Procedure: Differences in hygroscopicity of the various forms of a solid material provided a measure of their relative stability at increasing relative humidity. Moisture sorption isotherms were obtained using a DVS-1 system from Surface Measurement Systems (London, UK). The relative humidity was varied during sorption-desorption (see specific experiment) at a constant temperature of ca. 25° C. At the end of the DVS experiment the sample was measured by XRPD.
The dynamic vapor sorption (DVS) analysis for the crystalline Form E of the dichloride salt of the compound of formula I is depicted in FIG. 11.
See Example 5f for experimental details. The DVS analysis for the crystalline System A+M of the dichloride salt of the compound of formula I is depicted in FIG. 35.

[2] = Polymorphic stability (XRPD, climate chamber storage)
Procedure: XRPD patterns were obtained using a high-throughput XRPD set-up. The plates were mounted on a Bruker GADDS diffractometer equipped with a Hi-Star area detector. The XRPD platform was calibrated using Silver Behenate for the long d-spacings and Corundum for the short d-spacings. Data collection was carried out at room temperature using monochromatic CuKo radiation in the 20 region between 1.5° and 41.5°, which is the most distinctive part of the XRPD pattern. The diffraction pattern of each well was collected in two 20 ranges (1.5° 20≤21.5° for the first frame, and 19.5°% 20≤41.5° for the second) with an exposure time of 90 s for each frame. No background subtraction or curve smoothing was applied to the XRPD patterns. The carrier material used during XRPD analysis was transparent to X-rays and contributed only slightly to the background.
For variable humidity (VH) and variable temperature (VT) experiments a ANSYCO HT chamber was used, installed within a D8 Advance system diffractometer (Bruker) designed with Bragg-Brentano geometry and equipped with LynxEye solid state detector. The radiation used for collecting the data was CuKαl (2=1.54056 Å) monochromatized by germanium crystal. The material was placed on a fixed sample holder that was mounted inside the chamber.
VH-XRPD: The humidity was applied locally and varied from 10 to 70% (dew point). […]

[3] = Thermodynamic pH-dependent solubility; settings: room temperature, 24 h
Procedure: The thermodynamic pH-dependent solubility was performed in unbuffered water as well as using standard Merck Titriplex® buffers (Merck Titrisol® buffer pH 3 with citrate and HCl; Merck Titrisol® buffer pH 4 with citrate and HCl; Merck Titrisol® buffer pH 5 with citrate and NaOH; Merck Titrisol® buffer pH 6 with citrate and NaOH; Merck Titrisol® buffer pH 7 with phosphate; for buffering at pH 4.5 a 50/50 mixture of buffers for pH 4 and 5 was used; for buffering at pH 5.5 a 50/50 mixture of buffers for pH 5 and 6 was used).
For each experiment, an 8 mL screw cap vial was prepared with the polymorphic material, the buffer solvent according to the target pH and a magnetic stirring bar. Each pH data point was determined in triplicate with a target pH of 3, 4, 4.5, 5, 5.5 and 7. The pH was measured (Fisherbrand pH meter Hydrus 400, a three point calibration was performed prior to measurement) and adjusted with 1M NaOH solution. […] After 24 h the pH was monitored and the slurries were centrifuged for 10 min at 3000 rpm to separate the solids and liquids and filtered (0.45 micron disk filter). […] Concentrations of the compound of formula I were determined by High Performance Liquid Chromatography with Diode Array Detection analysis (HPLC-DAD). […]
HPLC testing was performed on Agilent 1100 with DAD detector at 280 nm wavelength. A LOQ of 11 μg/mL was determined, linearity is given up to ca. 0.7 mg/mL. […]

water absorption up to 85% RH [1]	water absorption up to 95% RH [1]	polymorphic form after 2 days at 40° C./75% RH ([2]; wet solid treated 2 days at 40° C./75% RH)	hysteresis in DVS ([1]; isothermic (24.9° C.) DVS, 0→95→0% RH)	maximum mass change ([1]; isothermic (24.9° C.) DVS, 0→95→0% RH in steps of 10% RH, at 95% RH) [%]	solubility (in words) [3]	polymorphic stability (in words) ([2]; listed as System A+X)	Compound
1%	ca. 4%	Form E					N#CCCNc1nonc1-c1nc2ccccc2n1CC(=O)c1ccc(NC(=O)[C@@H](N)CCCCN)cc1 [Form E]
			No hysteresis was observed	34			N#CCCNc1nonc1-c1nc2ccccc2n1CC(=O)c1ccc(NC(=O)[C@@H](N)CCCCN)cc1 [Mixture A1+M4]
ca. 22%	< 34%				good solubility	polymorphically stable	N#CCCNc1nonc1-c1nc2ccccc2n1CC(=O)c1ccc(NC(=O)[C@@H](N)CCCCN)cc1 [System A+M]
